Measurements reported in ChEMBL document CHEMBL4507283, “Data for DCP probe BI-1935” (2021).

Experiments:
[1] = target: Hepatocyte growth factor receptor (Homo sapiens) (UniProt P08581); settings: Compound concentration 1000.0 nM
[2] = target: Serine/threonine-protein kinase WNK4 (Homo sapiens) (UniProt Q96J92); settings: Compound concentration 1000.0 nM
[3] = target: Activin receptor type-1 (Homo sapiens) (UniProt Q04771); settings: Compound concentration 1000.0 nM
[4] = target: Serine/threonine-protein kinase BRSK2 (Homo sapiens) (UniProt Q8IWQ3); settings: Compound concentration 1000.0 nM
[5] = system: Mast/stem cell growth factor receptor Kit (Homo sapiens), P10721 [V559D]; settings: Compound concentration 1000.0 nM
[6] = target: Leukotriene A-4 hydrolase (Cavia porcellus) (UniProt P19602); test: LTA4HYD Eurofins-Panlabs selectivity data (BI); settings: Compound concentration 10.0 uM
[7] = target: Histamine H1 receptor (Homo sapiens) (UniProt P35367); test: H1/H Eurofins-Panlabs selectivity data (BI); settings: Compound concentration 10.0 uM
[8] = target: Dual specificity mitogen-activated protein kinase kinase 5 (Homo sapiens) (UniProt Q13163); settings: Compound concentration 1000.0 nM
[9] = target: Ephrin type-B receptor 2 (Homo sapiens) (UniProt P29323); settings: Compound concentration 1000.0 nM
[10] = target: Serine/threonine-protein kinase PLK4 (Homo sapiens) (UniProt O00444); settings: Compound concentration 1000.0 nM
[11] = target: Serine/threonine-protein kinase 32A (Homo sapiens) (UniProt Q8WU08); settings: Compound concentration 1000.0 nM
[12] = target: Macrophage colony-stimulating factor 1 receptor (Homo sapiens) (UniProt P07333); settings: Compound concentration 1000.0 nM
Macrophage colony-stimulating factor 1 receptor (Homo sapiens), sequence (P07333 whole entry): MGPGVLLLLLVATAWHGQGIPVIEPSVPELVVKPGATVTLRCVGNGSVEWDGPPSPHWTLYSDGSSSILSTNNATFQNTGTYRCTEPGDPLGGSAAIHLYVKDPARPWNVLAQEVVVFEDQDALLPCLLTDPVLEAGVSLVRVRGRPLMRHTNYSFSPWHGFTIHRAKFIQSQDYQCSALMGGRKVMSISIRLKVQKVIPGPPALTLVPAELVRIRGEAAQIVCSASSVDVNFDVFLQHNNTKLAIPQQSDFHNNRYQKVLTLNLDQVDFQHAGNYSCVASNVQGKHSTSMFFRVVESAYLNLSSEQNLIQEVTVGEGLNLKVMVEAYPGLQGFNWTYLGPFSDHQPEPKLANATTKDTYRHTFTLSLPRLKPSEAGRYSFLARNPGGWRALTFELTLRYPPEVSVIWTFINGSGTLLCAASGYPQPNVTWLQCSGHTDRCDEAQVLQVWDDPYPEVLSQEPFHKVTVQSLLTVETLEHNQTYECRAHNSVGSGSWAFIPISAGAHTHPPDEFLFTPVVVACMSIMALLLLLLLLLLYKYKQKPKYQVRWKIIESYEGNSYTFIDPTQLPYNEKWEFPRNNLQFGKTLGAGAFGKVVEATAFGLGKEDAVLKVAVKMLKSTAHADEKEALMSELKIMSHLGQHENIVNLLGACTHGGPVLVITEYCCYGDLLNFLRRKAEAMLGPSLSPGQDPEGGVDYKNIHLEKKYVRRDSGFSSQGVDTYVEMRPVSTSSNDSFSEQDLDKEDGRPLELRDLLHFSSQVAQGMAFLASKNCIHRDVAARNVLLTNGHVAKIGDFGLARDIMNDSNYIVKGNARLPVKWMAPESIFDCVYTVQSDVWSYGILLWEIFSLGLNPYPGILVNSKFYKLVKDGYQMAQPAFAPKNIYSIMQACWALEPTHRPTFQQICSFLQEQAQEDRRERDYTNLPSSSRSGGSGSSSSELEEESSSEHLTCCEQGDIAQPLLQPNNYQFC

[13] = target: Ephrin type-A receptor 3 (Homo sapiens) (UniProt P29320); settings: Compound concentration 1000.0 nM
[14] = target: Ribosomal protein S6 kinase beta-1 (Homo sapiens) (UniProt P23443); settings: Compound concentration 1000.0 nM
[15] = target: Serine/threonine-protein kinase Nek5 (Homo sapiens) (UniProt Q6P3R8); settings: Compound concentration 1000.0 nM
Serine/threonine-protein kinase Nek5 (Homo sapiens), sequence (Q6P3R8 whole entry, canonical isoform): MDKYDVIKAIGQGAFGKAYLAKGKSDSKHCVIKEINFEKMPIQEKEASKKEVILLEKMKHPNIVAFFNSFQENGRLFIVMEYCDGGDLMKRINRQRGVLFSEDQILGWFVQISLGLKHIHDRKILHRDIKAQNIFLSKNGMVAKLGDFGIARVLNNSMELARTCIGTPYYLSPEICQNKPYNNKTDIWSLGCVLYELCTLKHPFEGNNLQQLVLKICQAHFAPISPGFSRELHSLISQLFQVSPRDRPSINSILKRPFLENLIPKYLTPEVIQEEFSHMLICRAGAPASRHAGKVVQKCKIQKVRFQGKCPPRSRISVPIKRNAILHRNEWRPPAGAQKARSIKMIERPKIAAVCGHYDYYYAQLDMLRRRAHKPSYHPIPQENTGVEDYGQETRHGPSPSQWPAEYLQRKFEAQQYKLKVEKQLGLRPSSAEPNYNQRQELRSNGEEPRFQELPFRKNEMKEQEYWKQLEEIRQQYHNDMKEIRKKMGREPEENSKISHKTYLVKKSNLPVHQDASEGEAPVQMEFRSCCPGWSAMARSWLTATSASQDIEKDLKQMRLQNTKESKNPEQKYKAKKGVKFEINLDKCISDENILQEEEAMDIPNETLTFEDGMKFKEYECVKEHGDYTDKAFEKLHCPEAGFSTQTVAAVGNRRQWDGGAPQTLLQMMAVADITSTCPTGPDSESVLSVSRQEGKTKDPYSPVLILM

[16] = target: Phosphatidylinositol 4,5-bisphosphate 3-kinase catalytic subunit delta isoform (Homo sapiens) (UniProt O00329); settings: Compound concentration 1000.0 nM
[17] = system: eIF-2-alpha kinase GCN2 (Homo sapiens), Q9P2K8 [S808G]; settings: Compound concentration 1000.0 nM
[18] = target: Tyrosine-protein kinase ITK/TSK (Homo sapiens) (UniProt Q08881); settings: Compound concentration 1000.0 nM
[19] = target: AP2-associated protein kinase 1 (Homo sapiens) (UniProt Q2M2I8); settings: Compound concentration 1000.0 nM
AP2-associated protein kinase 1 (Homo sapiens), sequence (Q2M2I8 whole entry, looked up): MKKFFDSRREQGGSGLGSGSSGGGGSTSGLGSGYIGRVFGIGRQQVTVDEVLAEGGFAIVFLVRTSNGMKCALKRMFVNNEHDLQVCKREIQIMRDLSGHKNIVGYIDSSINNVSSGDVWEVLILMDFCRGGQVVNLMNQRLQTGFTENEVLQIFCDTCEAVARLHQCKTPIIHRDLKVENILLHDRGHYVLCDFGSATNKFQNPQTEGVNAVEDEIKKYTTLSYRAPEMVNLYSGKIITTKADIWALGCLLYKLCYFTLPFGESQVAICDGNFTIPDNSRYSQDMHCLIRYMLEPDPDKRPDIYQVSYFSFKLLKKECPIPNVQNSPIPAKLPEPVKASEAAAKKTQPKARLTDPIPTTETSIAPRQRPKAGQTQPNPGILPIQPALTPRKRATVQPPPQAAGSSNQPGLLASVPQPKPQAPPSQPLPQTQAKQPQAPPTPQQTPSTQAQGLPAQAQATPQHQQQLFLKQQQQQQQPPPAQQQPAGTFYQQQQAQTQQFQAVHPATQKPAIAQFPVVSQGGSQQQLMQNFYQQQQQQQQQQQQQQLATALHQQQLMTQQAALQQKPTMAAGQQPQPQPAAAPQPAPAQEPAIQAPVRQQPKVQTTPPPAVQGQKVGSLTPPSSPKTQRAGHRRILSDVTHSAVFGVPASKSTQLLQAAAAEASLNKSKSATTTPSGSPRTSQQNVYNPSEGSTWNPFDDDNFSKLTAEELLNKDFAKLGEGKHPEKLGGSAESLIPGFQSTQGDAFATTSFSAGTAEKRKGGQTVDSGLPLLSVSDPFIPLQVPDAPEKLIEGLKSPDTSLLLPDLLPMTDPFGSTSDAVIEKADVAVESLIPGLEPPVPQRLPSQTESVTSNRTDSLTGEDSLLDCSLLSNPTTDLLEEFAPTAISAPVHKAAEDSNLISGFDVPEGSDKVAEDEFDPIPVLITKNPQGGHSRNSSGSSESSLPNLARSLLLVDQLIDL

[20] = system: Tyrosine-protein kinase ABL1 (Homo sapiens), P00519 [F317L]; settings: Compound concentration 1000.0 nM
[21] = target: MAP kinase-activated protein kinase 2 (Homo sapiens) (UniProt P49137); settings: Compound concentration 1000.0 nM
[22] = target: Tyrosine-protein kinase BTK (Homo sapiens) (UniProt Q06187); settings: Compound concentration 1000.0 nM
[23] = target: Proto-oncogene tyrosine-protein kinase Src (Homo sapiens) (UniProt P12931); settings: Compound concentration 1000.0 nM
[24] = target: Histamine H3 receptor (Homo sapiens) (UniProt Q9Y5N1); settings: Compound concentration 10.0 uM
[25] = target: Megakaryocyte-associated tyrosine-protein kinase (Homo sapiens) (UniProt P42679); settings: Compound concentration 1000.0 nM
[26] = target: Ribosomal protein S6 kinase alpha-1 (Homo sapiens) (UniProt Q15418); settings: Compound concentration 1000.0 nM
Ribosomal protein S6 kinase alpha-1 (Homo sapiens), sequence (Q15418 whole entry): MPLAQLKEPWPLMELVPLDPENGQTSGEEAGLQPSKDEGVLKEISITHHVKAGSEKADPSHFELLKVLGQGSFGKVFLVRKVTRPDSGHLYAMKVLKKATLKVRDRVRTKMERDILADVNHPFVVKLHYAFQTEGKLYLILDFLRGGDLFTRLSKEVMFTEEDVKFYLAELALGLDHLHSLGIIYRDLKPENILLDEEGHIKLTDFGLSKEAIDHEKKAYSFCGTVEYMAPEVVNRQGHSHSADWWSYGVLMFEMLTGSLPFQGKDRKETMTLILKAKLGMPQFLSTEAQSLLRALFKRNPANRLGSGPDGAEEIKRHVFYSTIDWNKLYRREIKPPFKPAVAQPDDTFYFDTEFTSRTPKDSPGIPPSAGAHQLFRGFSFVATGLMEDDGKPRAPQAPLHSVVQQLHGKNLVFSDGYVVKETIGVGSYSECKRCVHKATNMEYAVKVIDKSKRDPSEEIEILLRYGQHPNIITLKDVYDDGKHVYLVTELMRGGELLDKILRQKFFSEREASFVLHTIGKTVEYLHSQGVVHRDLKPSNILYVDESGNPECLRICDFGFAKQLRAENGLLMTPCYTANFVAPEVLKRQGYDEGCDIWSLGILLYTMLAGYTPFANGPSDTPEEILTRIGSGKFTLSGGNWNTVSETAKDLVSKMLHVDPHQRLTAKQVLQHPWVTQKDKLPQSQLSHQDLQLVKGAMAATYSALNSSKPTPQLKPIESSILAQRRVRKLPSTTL

[27] = target: Mitogen-activated protein kinase kinase kinase 6 (Homo sapiens) (UniProt O95382); settings: Compound concentration 1000.0 nM
[28] = target: Ankyrin repeat and protein kinase domain-containing protein 1 (Homo sapiens) (UniProt Q8NFD2); settings: Compound concentration 1000.0 nM
[29] = target: Non-receptor tyrosine-protein kinase TYK2 (Homo sapiens) (UniProt P29597); settings: Compound concentration 1000.0 nM
[30] = system: ALK tyrosine kinase receptor (Homo sapiens), Q9UM73 [L1196M]; settings: Compound concentration 1000.0 nM
[31] = target: cGMP-inhibited 3',5'-cyclic phosphodiesterase 3A (Homo sapiens) (UniProt Q14432); test: PDE-III/HU Eurofins-Panlabs selectivity data (BI); settings: Compound concentration 10.0 uM
[32] = target: Tyrosine-protein kinase HCK (Homo sapiens) (UniProt P08631); settings: Compound concentration 1000.0 nM
[33] = target: Ribosomal protein S6 kinase alpha-5 (Homo sapiens) (UniProt O75582); settings: Compound concentration 1000.0 nM
[34] = target: Dual specificity tyrosine-phosphorylation-regulated kinase 2 (Homo sapiens) (UniProt Q92630); settings: Compound concentration 1000.0 nM
[35] = target: Serine/threonine-protein kinase 32C (Homo sapiens) (UniProt Q86UX6); settings: Compound concentration 1000.0 nM
[36] = target: Serine/threonine-protein kinase Sgk2 (Homo sapiens) (UniProt Q9HBY8); settings: Compound concentration 1000.0 nM
[37] = target: Tyrosine-protein kinase Fyn (Homo sapiens) (UniProt P06241); settings: Compound concentration 1000.0 nM
Tyrosine-protein kinase Fyn (Homo sapiens), sequence (P06241 2-537 limits assumed): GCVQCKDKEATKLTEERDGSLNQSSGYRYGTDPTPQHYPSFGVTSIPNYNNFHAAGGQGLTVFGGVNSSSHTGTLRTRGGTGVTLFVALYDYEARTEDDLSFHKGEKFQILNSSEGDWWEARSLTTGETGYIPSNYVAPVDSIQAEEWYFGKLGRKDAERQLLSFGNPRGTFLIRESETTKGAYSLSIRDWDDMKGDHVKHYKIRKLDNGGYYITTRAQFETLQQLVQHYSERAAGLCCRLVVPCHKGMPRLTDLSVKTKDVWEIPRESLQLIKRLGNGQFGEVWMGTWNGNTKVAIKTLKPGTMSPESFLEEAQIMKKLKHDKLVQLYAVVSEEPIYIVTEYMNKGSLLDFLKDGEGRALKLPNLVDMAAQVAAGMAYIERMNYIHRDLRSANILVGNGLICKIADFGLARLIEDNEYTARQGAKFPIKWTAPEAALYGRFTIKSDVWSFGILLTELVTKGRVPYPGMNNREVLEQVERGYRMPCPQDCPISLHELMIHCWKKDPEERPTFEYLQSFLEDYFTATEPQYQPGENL

[38] = system: Phosphatidylinositol 4,5-bisphosphate 3-kinase catalytic subunit alpha isoform (Homo sapiens), P42336 [E542K]; settings: Compound concentration 1000.0 nM
Phosphatidylinositol 4,5-bisphosphate 3-kinase catalytic subunit alpha isoform (Homo sapiens), P42336 [E542K], sequence (P42336 whole entry E542K, canonical isoform): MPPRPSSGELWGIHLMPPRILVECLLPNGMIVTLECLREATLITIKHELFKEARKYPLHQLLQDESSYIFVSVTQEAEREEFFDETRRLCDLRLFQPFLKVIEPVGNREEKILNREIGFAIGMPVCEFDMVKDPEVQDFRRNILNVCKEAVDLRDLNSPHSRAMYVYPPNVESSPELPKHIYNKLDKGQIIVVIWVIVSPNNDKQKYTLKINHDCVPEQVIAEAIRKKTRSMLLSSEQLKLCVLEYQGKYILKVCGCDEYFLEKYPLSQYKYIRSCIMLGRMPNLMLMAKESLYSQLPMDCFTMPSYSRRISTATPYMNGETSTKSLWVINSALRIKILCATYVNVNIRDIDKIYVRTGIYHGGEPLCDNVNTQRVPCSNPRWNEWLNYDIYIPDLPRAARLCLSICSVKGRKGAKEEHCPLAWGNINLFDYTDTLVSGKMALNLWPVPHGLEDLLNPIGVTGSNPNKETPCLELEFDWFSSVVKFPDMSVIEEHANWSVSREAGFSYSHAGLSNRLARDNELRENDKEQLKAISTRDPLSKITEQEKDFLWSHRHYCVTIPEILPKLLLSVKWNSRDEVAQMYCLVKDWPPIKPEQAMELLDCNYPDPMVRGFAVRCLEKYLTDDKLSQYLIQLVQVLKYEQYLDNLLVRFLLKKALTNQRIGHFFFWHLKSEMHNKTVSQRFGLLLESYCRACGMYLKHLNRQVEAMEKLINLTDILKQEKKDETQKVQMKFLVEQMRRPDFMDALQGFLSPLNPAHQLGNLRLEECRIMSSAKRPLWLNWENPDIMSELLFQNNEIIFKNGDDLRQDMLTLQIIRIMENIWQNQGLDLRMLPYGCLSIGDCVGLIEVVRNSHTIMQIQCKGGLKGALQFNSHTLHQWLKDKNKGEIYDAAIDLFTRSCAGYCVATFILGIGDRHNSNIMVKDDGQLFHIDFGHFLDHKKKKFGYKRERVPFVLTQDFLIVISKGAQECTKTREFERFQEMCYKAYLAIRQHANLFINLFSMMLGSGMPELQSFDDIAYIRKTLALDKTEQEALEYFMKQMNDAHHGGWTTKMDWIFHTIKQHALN

[39] = system: Tyrosine-protein kinase ABL1 (Homo sapiens), P00519 [T315I]; settings: Compound concentration 1000.0 nM
[40] = target: Muscle, skeletal receptor tyrosine-protein kinase (Homo sapiens) (UniProt O15146); settings: Compound concentration 1000.0 nM
[41] = target: Macrophage colony-stimulating factor 1 receptor (Homo sapiens) (UniProt P07333); settings: Compound concentration 1000.0 nM; remark: listed apart in the source
[42] = target: Ephrin type-A receptor 7 (Homo sapiens) (UniProt Q15375); settings: Compound concentration 1000.0 nM
[43] = target: Protein-tyrosine kinase 2-beta (Homo sapiens) (UniProt Q14289); settings: Compound concentration 1000.0 nM
[44] = target: Serine/threonine-protein kinase 25 (Homo sapiens) (UniProt O00506); settings: Compound concentration 1000.0 nM
[45] = target: Receptor-interacting serine/threonine-protein kinase 1 (Homo sapiens) (UniProt Q13546); settings: Compound concentration 1000.0 nM

CCOCCn1cc(C(=O)Nc2ccc(-n3nc(-c4cccnc4)cc3C(F)(F)F)cn2)ccc1=O [BI 1935]
inactive: residual activity [1] 95% | residual activity [2] 91% | residual activity [3] 75% | residual activity [4] 100% | residual activity [5] 87% | residual activity [6] 111% | residual activity [7] 98% | residual activity [8] 84% | residual activity [9] 61% | residual activity [10] 100% | residual activity [11] 96% | residual activity [12] 100% | residual activity [13] 99% | residual activity [14] 97% | residual activity [15] 100% | residual activity [16] 100% | residual activity [17] 72% | residual activity [18] 83% | residual activity [19] 100% | residual activity [20] 100% | residual activity [21] 100% | residual activity [22] 79% | residual activity [23] 90% | inhibition [24] 25.3% | residual activity [25] 90% | residual activity [26] 100% | residual activity [27] 86% | residual activity [28] 57% | residual activity [29] 77% | residual activity [30] 73% | residual activity [31] 85% | residual activity [32] 93% | residual activity [33] 63% | residual activity [34] 100% | residual activity [35] 100% | residual activity [36] 100% | residual activity [37] 53% | residual activity [38] 100% | residual activity [39] 96% | residual activity [40] 99% | residual activity [41] 100% | residual activity [42] 98% | residual activity [43] 100% | residual activity [44] 95% | residual activity [45] 88%
